Test system: IL-6
Experiment: Retinol (Inumax)-induced IL-6 production in primary adult human dermal fibroblast cells
Format: cell-based
Conditions: lower effective retinoid concentrations (lower than 0.5% by weight of the composition)
Protocol: Primary adult human dermal fibroblast cells were incubated with 0.1% microencapsulated retinol commercially available and sold y Evonik under the trade name Inumax. Inumax was diluted in cell culture media to a final concentration of 0.1% and the dilution was used as an inflammatory reaction control. The anti-inflammatory activity of Bisabolol and Centella asiatica was compared in comparison to the control by incubating adult human dermal fibroblast cells with 0.1% inumax in supernatant in the presence of Bisabolol and Centella asiatica, both in combination with dipeptide, at a range of concentrations. Cells were incubated fro 24 hours at 37 C and 5% CO2, in the presence of the actives. At the end of incubation time the supernatant was removed for IL-6 testing. An MTT (3-(4,5-dimethylthiazol-2-yl)-2,5-diphenyltetrazolium bromide) assay was performed on the treated cells to confirm cell metabolic activity following treatment. The levels of IL-6 in supernatant were determined using the Invitrogen IL-6 assay.

With α-bisabolol as the substance, how does the “reducing the retinol induced IL-6 production and consequential skin sensitivity” value read?
Its value is “beneficial in reducing the retinol induced IL-6 production”.

Source: patent US20250152494A1, “COSMETIC COMPOSITION CONTAINING RETINOID, EXTRACT OF CENTELLA ASIATICA AND A DIPEPTIDE” (THE BOOTS COMPANY PLC, priority 2022, published 2025)
